Data: patent US10214609B2, “Polyglyoxylates, manufacture and use thereof” (THE UNIVERSITY OF WESTERN ONTARIO, priority 2014, dated 2019)

Key:
[1] = NMR degradation study of the micelles; assay type: physicochemical; conditions: over 24 h at 37° C., pH 7.4 buffered D2O
Description: 16 mg of block copolymer 21 b was fully dissolved in 0.8 mL of DMSO-d6. 0.2 mL of the resulting solution was rapidly injected into 1.0 mL of 100 mM, pH 7.4 phosphate or 100 mM, pH 5.0 citrate buffered D2O. After stirring for 0.5 h, the micelle suspension was transferred into two NMR tubes. One tube was then irradiated for 10 min in with UV light (wavelength: 300-350 nm, 23 mW cm^−2), while the other one was kept in the dark. A ^1H NMR spectrum was obtained immediately following irradiation (10 min time point in the graph), then the samples were incubated at 37° C. and spectra were obtained at regular intervals over 24 h. Complete depolymerization was confirmed for the irradiated sample as the sum of the integration of the methyl peaks corresponding to EtGH and ethanol (1.0-1.2 ppm) plateaud at a very similar (1198) value to that of the methyl peak at 1.17-1.45 ppm in the block copolymer 21b taken in CDCl3 (integration 1152) when setting the PEG peak integral to 364. The % polymer remaining was calculated as 100−(sum of integration from 1.0-1.2 ppm/1198))*100.

[2] = Nile red encapsulation and triggered release from micelles; conditions: dissolved in ethanol, same irradiation periods
[3] = Thermogravimetric analysis (TGA) of polymers; assay type: physicochemical
Source text: Ethyl glyoxylate in toluene solution (50% w/w), phenyl isocyanate, dibutyltin dilaurate (DBTL), benzyl chloroformate, 4-dimethylaminopyridine (DMAP), 4-bromomethyl-3-nitrobenzoic acid, methanesulfonyl chloride and benzyl bromide were obtained from Alfa Aesar (Canada). Fumaric acid and maleic acid were purchased from Acros Organics (USA). 6-Nitroveratryl chloroformate (NVOC-Cl) was obtained from Chem-Impex International, Inc. (USA). Propargyl amine was purchased from AK Scientific, Inc. (USA). 4-(Hydroxymethyl)phenylboronic acid pinacol ester and hydrogen peroxide solution (50 wt %) in water, hydrazine hydrate, dimethyl sulfide, sodium azide (NaN3), tin (II)chloride dehydrate, phosgene solution (15 wt. % in toluene), nile red and poly(ethylene glycol) methyl ether (MW=5000 g/mol, 2000 g/mol and 750 g/mol) were purchased from Sigma-Aldrich (USA). 1-Ethyl-3-(3-dimethylaminopropyl) carbodiimide hydrochloride (EDC.HCl) was purchased from Creo Salus (USA). Thionyl chloride (Alfa Aesar) was distilled under argon prior to use. Triethylamine (Et3N), pyridine, and dichloromethane were distilled from calcium hydride before use. Anhydrous tetrahydrofuran (THF) and N,N-dimethylformamide (DMF) were obtained from a solvent purification system using aluminum oxide columns. All the other chemicals were of reagent grade and used without further purification. ^1H NMR spectra were obtained in CDCl3 at 400 MHz or 600 MHz on Varian Inova instruments. NMR chemical shifts (δ) are reported in ppm and are calibrated against residual solvent signals of CDCl3 (δ 7.27), acetonitrile-d3 (δ 1.94), DMSO-d6 (δ 2.50) or deuterium oxide (δ 4.75). Fourier transform infrared spectra (FT-IR) were obtained using a Bruker tensor 27 instrument with films drop cast from CH2Cl2 on KBr plates. High-resolution mass spectrometry (HRMS) was performed using a Finnigan MAT 8400 electron impact (EI) mass spectrometer. The SEC instrument was equipped with a Viscotek GPC Max VE2001 solvent module. Samples were analyzed using the Viscotek VE3580 RI detector operating at 30° C. The separation technique employed two Agilent Polypore (300×7.5 mm) columns connected in series and to a Polypore guard column (50×7.5 mm). Samples were dissolved in THF (glass distilled grade) in approximately 5 mg/mL concentrations and filtered through 0.22 μm syringe filters. Samples were injected using a 100 μL loop. The THF eluent was filtered and eluted at 1 ml/min for a total of 30 minutes. A calibration curve was obtained from Polystyrene samples with molecular weight ranges of 1,540-1,126,000/mol Differential scanning calorimetry (DSC) and thermogravimetric analysis (TGA) were performed on a Mettler Toledo DSC 822e. For TGA the heating rate was 10° C./min between 50-400° C. under nitrogen. For DSC, the heating/cooling rate was 10° C./min from −100 to +17° C. Glass transition temperatures were obtained from the second heating cycle. Ultrapure water was obtained from a Barnstead EASYpure II system. Dialyses were performed using Spectra/Por regenerated cellulose membranes with 3500 g/mol MWCO.

Compound	Hydrolysis to glyoxylic acid and ethanol [1] [%]	Change of fluorescence intensity on irradiation (photostability) [2]	To (onset degradation temperature) [3] [°C]	Tp (peak degradation temperature) [3] [°C]
CCOC(=O)C=O.O [EtGH, ethyl glyoxylate hydrate]	~45	–	–	–
CCN(CC)c1ccc2nc3c4ccccc4c(=O)cc-3oc2c1 [nile red]	–	no detectable decrease in intensity	–	–
PEtG-co-poly(methyl glyoxylate) [Polymer 14]	–	–	181	203
PEtG-co-poly(n-butyl glyoxylate) [Polymer 15]	–	–	208	236
poly(benzyl glyoxylate) [Polymer 13]	–	–	195	229
